# From the supplement of paper PMC10307832
# Assays:
# Assay in all cases: relative viability (nuclei count vs DMSO), 5 days (fraction); higher = more cells survive
# [1] = compound: COc1cc2nc(N3CCCN(C)CC3)nc(NC3CCN(Cc4ccccc4)CC3)c2cc1OC + CS(=O)(=O)N1CCN(Cc2cc3nc(-c4cccc5[nH]ncc45)nc(N4CCOCC4)c3s2)CC1 [Pictilisib] (partner 1 µM)
# Summary of the method: (§1)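 Relative viability was taken as the ratio of nuclei in treated wells to nuclei in vehicle wells. Lung cancer cell lines in 1536-well plates received compounds by pin tool one day after seeding, either one drug alone or a fixed anchor-drug dose plus five library-drug doses (not always all listed) in √10 steps. Nuclei were counted on 4× images after 5 days of treatment, and values are medians of duplicate plates.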
# [2] = compound: COc1cc2nc(N3CCCN(C)CC3)nc(NC3CCN(Cc4ccccc4)CC3)c2cc1OC + CC(C)C[C@H](NC(=O)[C@H](Cc1ccccc1)NC(=O)c1cnccn1)B(O)O [Bortezomib] (partner 0.002 µM)
# Summary of the method: as §1
# AZD6482 + Dasatinib = compound: Cc1cc([C@@H](C)Nc2ccccc2C(=O)O)c2nc(N3CCOCC3)cc(=O)n2c1 [AZD6482] + Cc1nc(Nc2ncc(C(=O)Nc3c(C)cccc3Cl)s2)cc(N2CCN(CCO)CC2)n1 [Dasatinib] (partner 0.075 µM)
# Summary of the method: as §1
# [3] = compound: COc1cc2nc(N3CCCN(C)CC3)nc(NC3CCN(Cc4ccccc4)CC3)c2cc1OC + O=C(c1cc(Cc2n[nH]c(=O)c3ccccc23)ccc1F)N1CCN(C(=O)C2CC2)CC1 [Olaparib] (partner 8 µM)
# Summary of the method: as §1
Cell Line,relative viability ([1]; first compound 0.2 µM),relative viability ([1]; first compound 0.6325 µM),relative viability ([1]; first compound 2 µM),relative viability ([1]; first compound 6.325 µM),relative viability ([2]; first compound 0.2 µM),relative viability ([2]; first compound 0.6325 µM),relative viability ([2]; first compound 2 µM),relative viability ([2]; first compound 6.325 µM),relative viability (AZD6482 + Dasatinib; first compound 0.08 µM),relative viability (AZD6482 + Dasatinib; first compound 0.253 µM),relative viability (AZD6482 + Dasatinib; first compound 0.8 µM),relative viability (AZD6482 + Dasatinib; first compound 2.53 µM),relative viability (AZD6482 + Dasatinib; first compound 8 µM),relative viability ([3]; first compound 0.2 µM),relative viability ([3]; first compound 0.6325 µM),relative viability ([3]; first compound 2 µM),relative viability ([3]; first compound 6.325 µM)
NCI-H322M,0.489,0.604,0.486,0.548,1.31,1.28,1.12,1.2,0.261,0.249,0.27,0.207,0.242,0.763,0.782,0.771,0.688
NCI-H441,0.407,–,0.48,0.38,0.454,–,0.519,0.36,0.568,0.592,0.704,–,0.502,0.566,0.495,0.691,0.551
NCI-H460,0.306,0.513,0.359,0.332,1.04,1.05,1.14,0.864,0.414,0.404,0.562,0.241,0.215,0.425,0.397,0.37,0.323
NCI-H520,0.292,0.329,0.332,0.21,0.792,0.623,0.777,0.217,0.154,0.153,0.138,0.144,0.166,0.332,0.321,0.324,0.144
NCI-H596,0.396,0.432,0.392,0.359,1.21,1.17,0.959,0.763,0.7,0.586,0.601,0.514,0.642,0.677,0.721,0.736,0.672
NCI-H647,–,0.583,0.567,0.254,0.967,1,1.35,0.449,0.133,0.152,0.153,0.0999,0.096,0.517,0.443,0.537,0.242
NCI-H650,0.959,0.707,1.03,0.562,0.752,0.739,1.05,0.694,0.446,–,0.453,0.292,0.319,0.445,0.356,0.434,0.396
NCI-H661,0.338,0.406,0.428,0.466,0.813,0.793,0.935,0.868,0.75,0.857,0.967,0.502,0.489,0.731,0.713,0.822,0.782
NCI-H727,0.391,0.394,0.32,0.346,0.756,0.893,0.751,0.618,0.401,0.41,0.41,0.266,0.395,0.646,0.616,0.772,0.59
NCI-H838,0.477,0.598,0.479,0.424,0.858,1.02,0.73,0.721,0.24,0.248,0.257,0.218,0.28,0.762,0.717,0.791,0.777
NCI-H1355,0.434,0.442,0.472,0.476,1.23,1.21,1.29,1.1,0.479,0.496,0.766,0.492,0.456,0.714,0.743,0.862,0.79
NCI-H1437,0.436,0.496,0.49,0.323,0.614,0.683,0.65,0.459,0.599,0.316,0.44,0.282,0.244,0.626,0.628,0.623,0.574
NCI-H1650,0.543,0.699,0.544,0.548,0.228,0.189,0.2,0.216,0.224,0.278,0.316,0.234,0.318,0.773,0.787,0.886,0.648
NCI-H1651,0.638,0.591,0.73,0.462,0.884,0.939,1.03,0.934,0.335,0.435,0.401,0.337,0.307,0.181,0.149,0.157,0.17
NCI-H1666,0.547,0.424,0.579,0.275,0.832,0.781,0.701,0.468,0.801,0.845,0.906,0.737,0.946,0.716,0.754,0.756,0.751
NCI-H1734,0.459,0.418,0.392,0.384,0.919,0.792,1.05,0.662,0.459,0.406,0.424,0.267,0.338,0.61,0.533,0.645,0.594
NCI-H1755,0.423,0.425,0.377,0.317,1,0.965,0.922,0.88,0.299,0.379,0.385,0.288,0.299,0.805,0.832,0.85,0.831
NCI-H1792,0.299,0.233,0.247,0.276,0.952,1.01,1.08,1.22,0.769,0.703,0.862,0.569,0.515,0.49,0.409,0.485,0.441
